Data: patent publication US20240109868A1, “EP300/CBP MODULATOR, PREPARATION METHOD THEREFOR AND USE THEREOF” (Miracure Biotechnology Limited, priority 2022, published 2024)
pIC50: −log10 of the molar value.

Test system: 22Rv1 Cell
Assay: 22RV1 cell growth inhibition, CellTiter-Glo, 72 h
Format: cell-based
Conditions: Homo sapiens, 22Rv1, 72 h, 22RV1 cells, 72 h culture
Experimental: 22RV1 or vCap cells were cultured in RPMI-1640 medium (10% fetal bovine serum and 100 units (per mL) of penicillin/streptomycin dual antibody were added to RPMI-1640) in a 37° C., 5% CO2 cell incubator. Cells at the logarithmic growth phase were inoculated onto a 96-well cell culture plate at 5×10^3 cells/100 μL/well and cultured overnight. Solutions of different concentrations of an active compound in DMSO were added, with the final concentration being 0.5% DMSO. The positive control was 1% TweeN2O, and the negative control was 0.5% DMSO. After 72 h of culture, an equal volume of CellTiter-Glo was added to each well, and the mixtures were mixed homogeneously by shaking for 2 min. The plate was let stand at room temperature for 10 min, and fluorescence signal values were read using a microplate reader. Data were analyzed using Prism 7.0 and graphs were generated. The values are shown as mean f SEM (N=2). […] The X-axis represents compound concentration (μM), and the Y-axis represents % inhibition.

CNC(=O)N1CCc2cc(C3CCC(=O)N(CC(C)O)C3)cc(N3CCCc4cc(-c5cnn(C)c5)c(C(F)F)cc43)c2C1 (stereo not shown) [Compound M001223]
pIC50: < 6.00

CC(=O)N1Cc2cc(C3CCN(CCF)C(=O)C3)cc(N3CCCc4cc(-c5cnn(C)c5)c(C(F)F)cc43)c2C1 (stereo not shown) [Compound M001250]
pIC50: < 6.00

CC(=O)N1Cc2cc([C@H]3CC[C@@H](NS(C)(=O)=O)CC3)cc(N3CCCc4cc(-c5cnn(C)c5)c(C(F)F)cc43)c2C1 [Compound M001305]
pIC50: > 6.00

CNC(=O)N1CCc2cc([C@H]3CC[C@@H](NC(C)=O)CC3)cc(N3CCCc4cc(-c5cnn(C)c5)c(C(F)F)cc43)c2C1 [Compound M001316]
pIC50: < 6.00

CC(=O)N1Cc2cc([C@H]3CC[C@H](NS(C)(=O)=O)CC3)cc(N3CCCc4cc(-c5cnn(C)c5)c(C(F)F)cc43)c2C1 [Compound M001309]
pIC50: > 6.00

CN[C@H]1CC[C@H](c2cc3c(c(N4CCCc5cc(-c6cnn(C)c6)c(C(F)F)cc54)c2)CN(C(C)=O)C3)CC1 [Compound M001311]
pIC50: < 6.00

CNC(=O)N1CCc2cc(C3CCN(CCO)C(=O)C3)cc(N3CCCc4cc(-c5cnn(C)c5)c(C(F)F)cc43)c2C1 (stereo not shown) [Compound M001248]
pIC50: < 6.00

COC(=O)N1CCc2cc(C3CCC(OC)CC3)cc(N3CCCc4cc(-c5cnn(C)c5)c(C(F)F)cc43)c2C1 (stereo not shown) [Compound M001271]
pIC50: < 6.00

CNC(=O)N1CCc2cc(C3CCN(S(C)(=O)=O)CC3)cc(N3CCCc4cc(-c5cnn(C)c5)c(C(F)F)cc43)c2C1 [Compound M001306]
pIC50: < 6.00

CNC(=O)N1CCc2cc(C3CCC(=O)N(C)C3)cc(Nc3cc(C(F)F)c(-c4cnn(C)c4)cc3F)c2C1 (stereo not shown) [Compound M001232, 8-((5-(difluoromethyl)-2-fluoro-4-(1-methyl-1H-pyrazol-4-yl)phenyl)amino)-N-methyl-6-(1-methyl-6-oxopiperidin-3-yl)-3,4-dihydroisoquinoline-2(1H)-carboxamide]
pIC50: < 6.00

CC(=O)N1Cc2cc(C3CCC(=O)N(CCF)C3)cc(N3CCCc4cc(-c5cnn(C)c5)c(C(F)F)cc43)c2C1 (stereo not shown) [Compound M001257]
pIC50: < 6.00

CC(=O)N1Cc2cc(C3CCN(CCO)C(=O)C3)cc(N3CCCc4cc(-c5cnn(C)c5)c(C(F)F)cc43)c2C1 (stereo not shown) [Compound M001247]
pIC50: < 6.00

CC(=O)N1Cc2cc(C3CCC(=O)N(C)C3)cc(Nc3cc(C(F)F)c(-c4cnn(C)c4)cc3F)c2C1 (stereo not shown) [Compound M001233]
pIC50: < 6.00

CC(=O)N1Cc2cc(C3CCC(=O)N(C)C3)cc(N3CCCc4cc(-c5cn(C)nc5C(=O)N(C)C)c(C(F)F)cc43)c2C1 (stereo not shown) [Compound M001227]
pIC50: < 6.00

CNC(=O)N1CCc2cc(C3CCN(O)CC3)cc(N3CCCc4cc(-c5cnn(C)c5)c(C(F)F)cc43)c2C1 [Compound M001276, 8-[7-(difluoromethyl)-6-(1-methylpyrazol-4-yl)-3,4-dihydro-2H-quinolin-1-yl]-6-(1-hydroxypiperidin-4-yl)-N-methyl-3,4-dihydro-1H-isoquinoline-2-carboxamide]
pIC50: < 6.00

CC(=O)N1Cc2cc(C3CCC(=O)N(CC(C)O)C3)cc(N3CCCc4cc(-c5cnn(C)c5)c(C(F)F)cc43)c2C1 (stereo not shown) [Compound M001226]
pIC50: < 6.00

CC(=O)N1Cc2cc([C@H]3CC[C@@H](N(C)C)CC3)cc(N3CCCc4cc(-c5cnn(C)c5)c(C(F)F)cc43)c2C1 [Compound M001303]
pIC50: < 6.00

CNC(=O)N1CCc2cc([C@H]3CC[C@H](NC(C)=O)CC3)cc(N3CCCc4cc(-c5cnn(C)c5)c(C(F)F)cc43)c2C1 [Compound M001317]
pIC50: < 6.00

CNC(=O)N1CCc2cc(C3CCN(CCF)C(=O)C3)cc(N3CCCc4cc(-c5cnn(C)c5)c(C(F)F)cc43)c2C1 (stereo not shown) [Compound M001251]
pIC50: < 6.00

CNC(=O)N1CCc2cc(C3CCC(=O)N(CCF)C3)cc(N3CCCc4cc(-c5cnn(C)c5)c(C(F)F)cc43)c2C1 (stereo not shown) [Compound M001256]
pIC50: < 6.00

CC(=O)N1Cc2cc([C@H]3CC[C@H](N(C)C)CC3)cc(N3CCCc4cc(-c5cnn(C)c5)c(C(F)F)cc43)c2C1 [Compound M001312]
pIC50: < 6.00

CNC1CCC(c2cc3c(c(N4CCCc5cc(-c6cnn(C)c6)c(C(F)F)cc54)c2)CN(C(C)=O)C3)CC1 (stereo not shown) [Compound M001302]
pIC50: < 6.00

CNC(=O)N1CCc2cc(C3CCN(CC(C)O)C(=O)C3)cc(Nc3cc(C(F)F)c(-c4cnn(C)c4)cc3F)c2C1 (stereo not shown) [Compound M001240]
pIC50: < 6.00

CC(=O)N1Cc2cc(C3CCCNC3=O)cc(N3CCCc4cc(-c5cnn(C)c5)c(C(F)F)cc43)c2C1 (stereo not shown) [Compound M001258]
pIC50: < 6.00

CNC(=O)N1CCc2cc(-c3ccn(C4CCC(=O)NC4=O)c(=O)c3)cc(N3CCCc4cc(-c5cnn(C)c5)c(C(F)F)cc43)c2C1 (stereo not shown) [Compound M001300, 8-(7-(difluoromethyl)-6-(1-methyl-1H-pyrazol-4-yl)-3,4-dihydroquinolin-1(2H)-yl)-6-(1-(2,6-dioxopiperidin-3-yl)-2-oxo-1,2-dihydropyridin-4-yl)-N-methyl-3,4-dihydroisoquinoline-2(1H)-carboxamide]
pIC50: < 6.00
